pIC50: −log10 of the molar value. Like-named read-outs stand apart in the source and are kept apart here.
Tests used:
human TRPM-2 mRNA = assay: TRPM-2 mRNA expression in PC-3 and TRPM-2 transfected LNCaP cells; assay type: cell-based
Procedure: The sequences of these ten ODNs are set forth in the attached Sequence Listing as Seq. ID. Nos. 3-12. The ten human antisense ODNs were evaluated using TRPM-2 transfected LNCaP cells and human prostate cancer PC-3 cells for their ability to inhibit expression of TRPM-2 mRNA. […] ID Nos. 4, 5, and 12. Sequence ID No. 5 corresponds to the sequence used by Sensibar, et al. that produced inhibition of TRPM-2 expression in LNCaP cells, and is complementary to the first 21 bases of the TRPM-2 mRNA. […] ID No. 4. Common to all of the effective sequences is an overlap with either the initiation or termination sites of the TRPM-2 mRNA. Thus, it was shown that inhibition of expression of TRPM-2 may be accomplished by the administration of antisense ODNs, particularly antisense ODNs which are complementary to a region of the TRPM-2 mRNA spanning either the translation initiation site or the termination site.
To identify appropriate antisense TRPM-2 ODN sequences for use in human therapy, antisense ODN sequences directed against 10 different sites of the human TRPM-2 gene (FIG. 2, Seq. ID Nos. 3-12) were synthesized and tested for their ability to decrease TRPM-2 gene expression in human prostate cancer PC-3 and transfected LNCaP cells that overexpress TRPM-2 using the same treatment protocol described in Example 2. As shown, sequences 4, 5 and 12 are active for reduction of TRPM-2 expression. These three sequences overlap or are immediately adjacent to the translation initiation or termination sites.

TRPM-2 mRNA [1] = assay: Northern blot of TRPM-2 expression in CaKi-2 cells; assay type: cell-based, human
Procedure: (§1) Immunohistochemical staining was used to characterize TRPM-2 expression in 17 RCC and normal kidney tissues obtained from radical nephrectomy specimens. TRPM-2 expression in human renal cancer cell lines ACHN, CaKi-1 and CaKi-2 was evaluated by Northern and Western blot analyses. Northern blot analysis was used to assess changes in TRPM-2 mRNA expression after antisense TRPM-2 ODN treatment. The effects of combined antisense TRPM-2 ODN and taxol treatment on CaKi-2 cell growth was examined using a MTT assay (Zellweger et al., Neoplasia 3: 360-367 (2001)).

TRPM-2 mRNA [2] = assay: Northern blot of TRPM-2 mRNA in Shionogi tumor cells in vitro; assay type: cell-based, mouse; settings: varying ODN concentrations with lipofectin, treated twice over two days
Procedure: The sequence selectivity of the antisense TRPM-2 ODN (Seq. ID. No. 1) was confirmed by comparing expression levels of TRPM-2 mRNA in Shionogi tumor cells maintained in vitro, after treatment with the varying levels of antisense TRPM-2 ODN or a mismatch control (Seq. ID. No. 2). To facilitate uptake of the ODNs into the cells, the ODNs were formulated in a cationic lipid carrier (Lipofectin, (Life Technologies, Inc.)). Cells were treated twice over a period of two days using the following protocol. Cells were preincubated for 20 minutes with 4 μg/ml of lipofectin in serum free OPTI-MEM (Life Technologies, Inc.) and then incubated with the medium containing the selected concentration of ODN and lipofectin for four hours. The medium was then replaced with the standard culture medium.
The amount of TRPM-2 mRNA in the cells was evaluated using Northern blot analysis. […] In contrast, TRPM-2 mRNA levels were not affected by the mismatch ODN (Seq. ID. No. 2) at any of the employed concentrations. Thus, the affect of antisense TRPM-2 ODN is apparently sequence specific.

[3] = Side effects in Shionogi tumor mice; assay type: in vivo, mouse; settings: 12.5 mg/kg i.p. once daily for 40 days
Procedure: Mice were randomly selected for treatment with murine phosphorothioate antisense TRPM-2 ODN (Seq. ID No. 1) or a mismatch control (Seq. ID No. 2) which is two bases different in sequence from the antisense TRPM-2 ODN. Each experimental group consisted of 7 mice. One day after castration, 12.5 mg/kg of antisense TRPM-2 or mismatch control ODN dissolved in phosphate buffered saline were injected intraperitoneally once daily into each mouse of 40 days. Tumor volume was measured twice weekly, and calculated by the formula length×width×depth×0.5236. Gleave et al., Cancer Res. 52: 1598-1605 (1992). Data points were reported as average tumor volumes±standard deviation.

human RCC CaKi-2 cells = assay: MTT assay of CaKi-2 cell growth, ODN plus taxol; assay type: cell-based; settings: CAKI-2, CaKi-2 cells
Procedure: as §1

TRPM-2 = settings: cited from earlier work
Shionogi cells = assay: Viability of Shionogi cells treated with chemotherapy agent plus ODN; assay type: cell-based, mouse; settings: antisense Bcl-2 ODN added to antisense TRPM-2 ODN and taxol
Procedure: Shionogi cells maintained in vitro were treated with varying amounts of taxol alone or in combination with 500 nM antisense TRPM-2 ODN (Seq. ID. No. 1) or the mismatch control (Seq. ID No. 2). The cells were treated twice, as described in Example 2, and the percentage of viable cells remaining was determined. As shown, the inclusion of antisense TRPM-2 ODN shifted the dose-response curve to the left, lowering the IC50 by a factor of 5 to 10.
The experiment of Example 3 was repeated, with the addition of antisense Bcl-2 ODN (Seq. ID. No. 13) or a mismatch Bcl-2 ODN (Seq. ID. No. 14) in various combinations with antisense/mismatch TRPM-2 ODN and taxol. […] Thus, the targeting of additional anti-apoptotic agents appears to provide therapeutic benefits.

## Seq. ID No. 12: human antisense phosphorothioate ODN overlapping or adjacent to translation initiation or termination site of TRPM-2 mRNA (GCTGGGCGGAGTTGGGGGCCT; DNA, all phosphorothioate, methylation of C not given here)
Human TRPM-2 mRNA
  inhibition of TRPM-2 mRNA expression: best results
Human TRPM-2 mRNA; listed as 12
  inhibition of TRPM-2 mRNA expression: active

## mismatch control ODN: mismatch control two bases different in sequence from the antisense TRPM-2 ODN (DNA GCACAGCAGCAGGATCTTCAT; DNA, backbone and methylation of C not given here)
TRPM-2 mRNA [1]
  TRPM-2 expression in CaKi-2 cells: not
TRPM-2 mRNA [2]
  TRPM-2 mRNA levels in Shionogi cells: not affected
[3]
  side effects: No side effects

## Seq. ID No. 5: human antisense phosphorothioate ODN complementary to the first 21 bases of the TRPM-2 mRNA (ATTGTCTGAGACCGTCTGGTC; DNA, all phosphorothioate, methylation of C not given here)
Human TRPM-2 mRNA
  inhibition of TRPM-2 mRNA expression: best results
Human TRPM-2 mRNA; listed as 5
  inhibition of TRPM-2 mRNA expression: active

## CC(=O)O[C@H]1C(=O)[C@@]2(C)[C@H]([C@H](OC(=O)c3ccccc3)[C@]3(O)C[C@H](OC(=O)[C@H](O)[C@@H](NC(=O)c4ccccc4)c4ccccc4)C(C)=C1C3(C)C)[C@]1(OC(C)=O)CO[C@@H]1C[C@@H]2O [taxol]
Human RCC CaKi-2 cells; with antisense TRPM-2 ODN
  pIC50: 7.30
Human RCC CaKi-2 cells; with mismatch control ODN
  pIC50: 6.30

## antisense molecule corresponding to the bases 1-21 of the TRPM-2 sequence: antisense molecule of Sensibar et al.; Seq. ID No. 5 corresponds to its sequence (antisense ATTGTCTGAGACCGTCTGGTC; listed as DNA, chemistry not given here)
TRPM-2; LNCaP cells exposed to TNFα
  apoptotic cell death: increase in apoptotic cell death
TRPM-2; transfected LNCaP cells
  expression of TRPM-2: substantial reduction in expression of TRPM-2

## antisense Bcl-2 ODN: antisense Bcl-2 ODN (Seq. ID. No. 13) (antisense TCTCCCGGCTTGCGCCAT; listed as DNA, chemistry not given here)
Shionogi cells
  cytotoxic effects of taxol in combination with antisense TRPM-2 ODN and antisense Bcl-2 ODN: further enhanced the cytotoxic effects of taxol
